Source: patent US8921344B2, “Formulations and uses of 2-hydroxy-5-phenylazobenzoic acid derivatives” (Salix Pharmaceuticals, Inc., priority 2006, dated 2014)

Legend:
[1] = compared with 5-ASA; cited from earlier work
[2] = cited from earlier work
clinical = assay: clinical; set-up: species or system human; conditions: in vivo; for AUClast ratio Treatment B/A / Cmax ratio Treatment B/A / AUClast / AUC(0-t) / Tmax: human; for AUClast / AUC(0-t) / Tmax: male, po; for AUC(0-t): AUClast
Description: Study periods were separated by a minimum of 4 days. […] The standard pharmacokinetic parameters are shown for both dosing conditions in Table 1.
This delay is indicative of a slower transit of the drug through the GI tract.

[3] = cited from earlier work; remark: listed apart in the source

| SMILES | AUClast ratio Treatment B/A (clinical) | Cmax ratio Treatment B/A (clinical) | Change of systemic level as measured by Cmax (clinical) | AUClast (clinical) [ng·h/mL] | AUC(0-t) (clinical) [ng·h/mL] | also measured |
| --- | --- | --- | --- | --- | --- | --- |
| CC(=O)Nc1ccc(O)c(C(=O)O)c1 [N-Ac-5-ASA, N-acetyl-5-ASA] | 0.819 | 0.639 | significant decreases | – | – | Anti-inflammatory activity in the colon [1]: lower anti-inflammatory activity; Part of the oral dose measured in the blood / systemically absorbed ([2]; after oral balsalazide): ~12 % of the oral dose |
| Nc1ccc(O)c(C(=O)O)c1 [5-ASA, 5-aminosalicylic acid, reference compound] | – | – | significant decreases | 2096.4 ± 2577.31 | 2590 ± 1460 | Change of systemic level as measured by AUClast (clinical): significant decrease |
| Nc1ccc(C(=O)NCCC(=O)O)cc1 [4-ABA, 4-amino benzoyl-β-alanine] | – | – | – | 302.0 ± 262.07 | 288 ± 158 | Absorption of the released carrier component ([2]; released in the colon, largely eliminated in the feces): poorly absorbed; Tmax (clinical): 24.0 ± 8.51 h; Tmax (clinical; Tmax): 12.7 ± 9.46 h |
| O=C(O)CCNC(=O)c1ccc(/N=N/c2ccc(O)c(C(=O)O)c2)cc1 [Balsalazide, reference compound] | 1.146 | 0.791 | – | – | – | Part of the prodrug that reaches the colon ([2]; taken orally): 99% |
| O=C(O)CCNC(=O)c1ccc(/N=N/c2ccc(O)c(C(=O)O)c2)cc1 [Disodium balsalazide] | – | – | – | – | – | Water solubility [3]: highly water-soluble |
